Source: US20200197409A1, “HEPATITIS B VIRUS SURFACE ANTIGEN INHIBITOR” (FUJIAN COSUNTER PHARMACEUTICAL CO., LTD., priority 2017, published 2020)

Key:
[1] = tested on: HBV-DNA; assay: HBV DNA content in HepG2.2.15 cells culture supernatant by real time-qPCR; format: cell-based; details: supernatant on the 8th day
Experimental: (§1) 2.1 Cell Line: HepG2.2.15 Cells
3.6 15 μL of the reaction mixture was added into each well of a 96-well PCR plate, followed by addition of 10 μL of sample DNA or HBV DNA standards into each well.
3.7 PCR reaction conditions: heating at 95° C. for 10 minutes, then denaturation at 95° C. for 15 seconds, extension at 60° C. for 1 minute, a total of 40 cycles.

[2] = tested on: HBsAg; details: read-out: HBsAg EC50; HepG2.2.15 cells, supernatant on the 8th day
Experimental: The HBV DNA content in HepG2.2.15 cells culture supernatant was determined by real-time quantitative qPCR assay (real time-qPCR), and the HBV surface antigen content was determined by enzyme linked immunosorbent assay (ELISA). The inhibitory effect of the compound on HBV was evaluated by the EC50 value of the compound.
as §1
3.1 HepG2.2.15 cells (4×10^4 cells/well) were seeded into a 96-well plate and incubated overnight at 37° C. under 5% CO2.
3.2 On the 2nd day, the compound was diluted into 8 concentrations with 3-fold gradient. The compounds with different concentrations were added into the culture wells in duplicate wells. The final concentration of DMSO in the culture medium was 0.5%, 10 μM ETV was used as a 100%/inhibition control, and 0.5% DMSO was used as a 0% inhibition control.
3.3 On the 5th day, the culture medium was replaced with a fresh medium containing the compound.
3.4 On the 8th day, the culture medium in the culture well was collected, and a part of the sample was taken for ELISA to determine the content of hepatitis B virus S antigen, a part of the sample was taken to extract DNA with a high-throughput DNA purification kit (Qiagen-51162).
3.8 Determination of hepatitis B virus S antigen content by ELISA
50 μL of sample and standard sample were taken and added into a reaction plate respectively, followed by addition of 50 μL of enzyme conjugate into each well, the mixture was shaken and well-mixed, and placed in a bath at 37° C. for 60 minutes. The plate was then washed with washing solution 5 times, followed by addition of 50 μL of illuminating substrate into each well, the mixture was well-mixed and allowed to react at room temperature for 10 minutes in the dark. Chemiluminescence intensity was determined by a ELISA.
Calculation of the percentage of inhibition:% Inh.=(1−value of sample/value of DMSO control)×100
Calculation of EC50: The 50% inhibitory concentration (EC50) value of the compound on HBV was calculated by GraphPad Prism software.

[3] = tested on: HBV; assay: Anti-HBV activity on the hepatitis B virus mouse model (AAV-HBV); format: in vivo, C57BL/6 mice; details: 1 mg/kg, PO, QD
Experimental: The AAV vector-mediated HBV infected mouse model is a fast and efficient HBV model. Using the high hepatotropism of the AAV vector, the recombinant adeno-associated type 8 virus carrying 1.3 copies of the HBV genome (rAAV8-1.3HBV) is injected into the tail vein of mice, which can efficiently introduce the carried 1.3 copy HBV genome into hepatocytes. Due to the characteristics of the AAV viral vector, the vector mediated by it can express for a long time. The AAV/HBV model can continuously replicate HBV DNA and express HBsAg and HBeAg in the liver of the mice.
The anti-HBV efficacy of the test compound in vivo was evaluated by determining the content of HBsAg in the serum of the mice after treatment with the test compound on AAV/HBV mouse mode.
C57BL/6 mice, 10% HP-f-CD as vehicle, reference compound TDF (Tenofovir), test compound, recombinant virus rAAVS-1.3HBV, main reagents of the experiment including QIAamp96 DNA kit and TaqMan® Universal PCR Master Mix, Hepatitis B Virus Surface Antigen Detection Kit, instruments including: centrifuge (Beckman Allegra X-15R), tissue grinder (QIAGEN-Tissue lyser II) and spectrophotometer (Thermo-NANODROP 1000).
a) All mice were orally administered on the 28th day after the virus injection, and the day was set as day 0. Submaxillary blood of all mice was collected for serum collection before administration. The mice were administered once a day for four weeks.
b) Submaxillary blood of all mice was collected for serum collection twice a week, the volume of the blood collected each time was approximately 100 μL.
c) On the 28th day, all mice were euthanized and the blood was collected from the heart for serum collection.
The content of HBsAg in the serum of the mice was determined by ELISA. The experimental procedure refers to the specification of HBsAg ELISA kit.
a) The anti-HBV activity of the test compound on AAV/HBV mice model was evaluated by determining the content of HBsAg in the plasma of the mice.

[4] = tested on: HBV; assay: In vivo pharmacodynamic study of hydrodynamic injection mouse HBV model (HDI-HBV) via tail vein; set-up: species or system Balb/c mice; details: mouse plasma
Experimental: Anti-hepatitis B virus activity of the compound of the embodiment in vivo was evaluated by HDI mice model.
Balb/c mice, 10% HP—F-CD as vehicle, test compound, RG7834, ETV (Entecavir), pAAV2-HBV 1.3mer plasmid (extracted with Qiagen EndoFree Plasmid Giga kit), main reagents including QIAamp96 DNA kit and FasStart Universal Probe Mast (ROX). The main instruments used in this experiment included centrifuge (Beckman Allegra X-15R), tissue grinder (QIAGEN-Tissue lyser II) and spectrophotometer (Thermo-NANODROP 1000).
b) On day 0, all mice were subjected to hydrodynamic injection with HBV plasmid DNA solution via tail vein. The plasmid DNA was pre-treated with sterile physiological saline before injection and stored at 4° C. until use. Plasmid DNA solution was injected via the tail vein at a dose of 8% of the body weight of the mouse within 5 seconds.
c) On the 1st day to the 7th day, the mice were administered with the compound or solvent by oral gavage for 7 days.
d) On the 1st day, 3rd day and 5th day, the blood was collected from the submandibular vein of the mice, and heparin sodium was used as an anticoagulant. The blood sample was centrifuged at 7,000×g, 4° C. to prepare the plasma for the determination of HBV DNA.
e) On the 7^h day, all mice were euthanized by CO2. The blood was collected from the heart to prepare plasma, and the liver tissue was collected. Two left hepatic lobe were isolated, the size of which was 70-100 mg, and were frozen by liquid nitrogen immediately after collection. One of the hepatic lobe was used for HBV DNA detection, and the other was used for backup.
The content of HBsAg in the serum of the mice was determined by ELISA (enzyme linked immunosorbent assay). The experimental procedure refers to the specification of HBsAg ELISA kit.
The inhibitory activity of the test compound on HBV replication on the mouse HDI model was determined by measuring the content of HBsAg in the plasma of the mice.

Compound | EC50 [1] [nM] | EC50 [2] [nM] | also measured
COc1cc2c(cc1Cl)-c1cc(=O)c(C(=O)O)cn1[C@H](C(C)C)CO2 [Embodiment 14] | 23.4 | 22.8 | –
COC(=O)NCCCOc1cc2c(cc1Cl)-c1cc(=O)c(C(=O)O)cn1[C@H](C(C)C)CO2 [Embodiment 23] | 24.1 | 33.6 | –
CC(C)[C@@H]1COc2cc(OCCCOC(F)(F)F)c(Cl)cc2-c2cc(=O)c(C(=O)O)cn21 [Embodiment 21] | 23.2 | 25.9 | –
CC[C@@H]1COc2cc(OCCCOC)c(Cl)cc2-c2cc(=O)c(C(=O)O)cn21 [Embodiment 1] | 44.7 | 47.2 | –
COCCCOc1cc2c(cc1Cl)-c1cc(=O)c(C(=O)O)cn1[C@H](C1CCCC1)CO2 [Embodiment 4] | 11.2 | 65.8 | –
COCCCCOc1cc2c(cc1Cl)-c1cc(=O)c(C(=O)O)cn1[C@H](C(C)C)CO2 [Embodiment 19] | 11.7 | 8.15 | –
CO/N=C/CCOc1cc2c(cc1Cl)-c1cc(=O)c(C(=O)O)cn1[C@H](C(C)C)CO2 [Embodiment 10] | 3.67 | 5.05 | –
CC(C)[C@@H]1COc2cc(OCC3CC3)c(Cl)cc2-c2cc(=O)c(C(=O)O)cn21 [Embodiment 15] | 8.66 | 10.4 | –
CC(C)[C@@H]1COc2cc(OCCOCC(F)(F)F)c(Cl)cc2-c2cc(=O)c(C(=O)O)cn21 [Embodiment 13] | 24.1 | 43.9 | –
COCCCOc1cc2c(cc1C1CC1)-c1cc(=O)c(C(=O)O)cn1[C@H](C(C)(C)C)CO2 [Embodiment 28] | 0.508 | 0.718 | –
CC(=O)CCCOc1cc2c(cc1Cl)-c1cc(=O)c(C(=O)O)cn1[C@H](C(C)C)CO2 [Embodiment 22] | 11.2 | 11.4 | –
COCCCOc1cc2c(cc1C(C)=O)-c1cc(=O)c(C(=O)O)cn1[C@H](C(C)C)CO2 [Embodiment 29] | 0.507 | 1.34 | –
COCCOc1cc2c(cc1Cl)-c1cc(=O)c(C(=O)O)cn1[C@H](C(C)C)CO2 [Embodiment 18] | 34.7 | 34.8 | –
CC(C)OC(=O)OCOP(=O)(CO[C@H](C)Cn1cnc2c(N)ncnc21)OCOC(=O)OC(C)C.O=C(O)/C=C/C(=O)O [TDF, reference compound] | – | – | HBsAg content in the plasma of the mice ([3]; day 4): 4.56 IU/mL; HBsAg content in the plasma of the mice ([3]; day 7): 4.59 IU/mL; HBsAg content in the plasma of the mice ([3]; day 11): 4.66 IU/mL; HBsAg content in the plasma of the mice ([3]; day 14): 4.50 IU/mL; HBsAg content in the plasma of the mice ([3]; day 18): 4.61 IU/mL; HBsAg content in the plasma of the mice ([3]; day 21): 4.52 IU/mL; HBsAg content in the plasma of the mice ([3]; day 25): 4.33 IU/mL; HBsAg content in the plasma of the mice ([3]; day 28): 4.34 IU/mL; HBsAg content in the plasma of the mice ([3]; day −1): 4.59 IU/mL
CC(C)[C@@H]1COc2cc(OCCCN3CCOC3=O)c(Cl)cc2-c2cc(=O)c(C(=O)O)cn21 [Embodiment 20] | 45 | 41.9 | –
COCCCOc1cc2c(cc1C#N)-c1cc(=O)c(C(=O)O)cn1[C@H](C(C)C)CO2 [Embodiment 26] | 2.19 | 3.33 | –
COCCCOc1cc2c(cc1Cl)-c1cc(=O)c(C(=O)O)cn1[C@H](C1CC1)CO2 [Embodiment 3] | 105 | 66.2 | –
CC(C)[C@@H]1COc2cc(OCC3CCOCC3)c(Cl)cc2-c2cc(=O)c(C(=O)O)cn21 [Embodiment 17] | 4.77 | 5.05 | –
COCCCOc1cc2c(cc1Br)-c1cc(=O)c(C(=O)O)cn1[C@H](C(C)(C)C)CO2 [Embodiment 25] | < 0.457 | 0.769 | –
CCSCCOc1cc2c(cc1Cl)-c1cc(=O)c(C(=O)O)cn1[C@H](C(C)C)CO2 [Embodiment 7] | 35.3 | 59.8 | –
CNC(=O)OCCCOc1cc2c(cc1Cl)-c1cc(=O)c(C(=O)O)cn1[C@H](C(C)C)CO2 [Embodiment 11] | 14.2 | 15.5 | –
COCCCOc1cc2c(cc1Cl)-c1cc(=O)c(C(=O)O)cn1[C@H](C(C)(C)C)CO2 [Embodiment 24] | 0.457 | 0.743 | –
CC(C)COc1cc2c(cc1Cl)-c1cc(=O)c(C(=O)O)cn1[C@H](C(C)C)CO2 [Embodiment 16] | 11.4 | 9.73 | –
CCN(CC)C(=O)CCCOc1cc2c(cc1Cl)-c1cc(=O)c(C(=O)O)cn1[C@H](C(C)C)CO2 [Embodiment 12] | 19.1 | 25.5 | –
COCCCOc1cc2c(cc1C)-c1cc(=O)c(C(=O)O)cn1[C@H](C(C)(C)C)CO2 [Embodiment 27] | 1.1 | 2.51 | –
CSCCOc1cc2c(cc1Cl)-c1cc(=O)c(C(=O)O)cn1[C@H](C(C)C)CO2 [Embodiment 8] | 22.2 | 18 | –
C=C1[C@H](CO)[C@@H](O)C[C@@H]1n1cnc2c(=O)[nH]c(N)nc21 [Entecavir] | – | – | Log HBsAg (IU/mL) (Ave. value) ([4]; dosing time day 1, 0.1 mg/kg QD gavage): 3.66 IU/mL; Log HBsAg (IU/mL) (Ave. value) ([4]; dosing time day 3, 0.1 mg/kg QD gavage): 4.32 IU/mL; Log HBsAg (IU/mL) (Ave. value) ([4]; dosing time day 5, 0.1 mg/kg QD gavage): 4.01 IU/mL; Log HBsAg (IU/mL) (Ave. value) ([4]; dosing time day 7, 0.1 mg/kg QD gavage): 2.46 IU/mL
CC[C@@H](C)C1COc2cc(OCCCOC)c(Cl)cc2-c2cc(=O)c(C(=O)O)cn21 (stereo partly drawn) [Embodiment 5] | 21.5 | 28.8 | –
CC(C)[C@@H]1COc2cc(OCCCSCC(=O)O)c(Cl)cc2-c2cc(=O)c(C(=O)O)cn21 [Embodiment 9] | 16.2 | 22.4 | –
COCCCOc1cc2c(cc1Cl)-c1cc(=O)c(C(=O)O)cn1[C@H](C(C)C)CO2 [Embodiment 2] | 8.75 | 6.59 | –
